Values of other authors, collected in patent publication US20020098221A1, “Oil-in-water emulsion formulation of insecticides” (priority 2000, published 2002).

Conditions: at room temperature

SMILES | solubility in water
COCC(C)O (centres unmarked) [1-methoxy-2-propanol] | 100%
OCc1ccccc1 [benzyl alcohol] | 4%
O=C1CCCCC1 [cyclohexanone] | 8%
C[S+](C)[O-] [dimethylsulfoxide] | 100%
CN1CCCC1=O [n-methylpyrrolidone] | 100%
